Laboratory results reported in patent US20230181751A1, “FORMULATION OF PURE DIMETHOXY CURCUMIN-HUMAN SERUM ALBUMIN AND A PROCESS FOR THE PREPARATION THEREOF” (SREE CHITRA TIRUNAL INSTITUTE FOR MEDICAL SCIENCES AND …, priority 2020, published 2023).
≈ marks a conversion by molar mass, not a printed value. Read-outs that look alike come from different tables or passages of the source.

What was measured:
[1] = cited from earlier work
[2] = cited from earlier work; remark: listed apart in the source
[3] = storage stability of DMCHSA solution (UV and FTIR spectra); assay type: physicochemical
Description: The liquid stability of the product was analysed at 24 h interval for 48 h or 72 h. The UV spectra recorded at different storage period are shown
FTIR spectra are shown to substantiate the chemical degradation after 48 h of storage of DMCHSA solution.
The lyophilized samples were used for respective periods as prepared for liquid stability, were lyophilized and recorded FTIR spectrum.
Thus, liquid stability of DMCHSA stored for […] is evident.

solubility = assay type: physicochemical; details: water, before conjugation
[4] = system: Fibroblast cell line (L929); experiment: MTT cytotoxicity assay, DMCHSA versus free DMC; assay type: cell-based, mouse; details: similar molar concentrations, 24 h-48 h
Description: Cancer cell lines (A549,MCF-7), Fibroblast cell line (L929), and primary cells (ECs and CCs) were cultured in 96-well plates containing 100 µl medium, kept this plate in CO2 incubator (5% CO2) at 37° C. for 24 h. DMCHSA solution was freshly prepared by dissolving the lyophilized conjugate in DMEM F12 medium and added (0.05 mg/ml, 0.1 mg/ml, 0.2 mg/ml, 0.4 mg/ml) in 96 well plate for 24 h. […] In all cultures standard MTT assay quantified viable cells after treating with DMCHSA/free DMC. Briefly, commercial MTT (0.5 mg/ml) reagent was dissolved in medium. This solution was filtered through a 0.22 µm filter and stored at 2 - 8° C. After removal of 100 µl medium, MTT dye solution was added and the plates were incubated at 37° C. for 4 h in a humidified 5% CO2 incubator, followed by 100 µl of DMSO added to each well, and mixed thoroughly to dissolve the dye crystals.
The absorbance was measured using an ELISA plate reader at 570 nm. High optical density readings corresponded to a high intensity of dye colour. The fractional absorbance was calculated by the formula: % Cell survival/PR = Mean absorbance in test × 100 Mean absorbance in control

With `COc1cc(/C=C/C(=O)CC(=O)/C=C/c2ccc(O)c(OC)c2)ccc1O` [DMC, (1E,6E)-1,7-bis(4-hydroxy-3-methoxyphenyl)hepta-1,6-dienne-3,5-dione] as the compound, how does the “half-life of DMC” value ([1]; in the presence of protein) read?
Its value is 1 to 2 h.

What about the “half-life of DMC” value ([1]; physiological pH, without protein) of the same compound?
Its value is “a few minutes”.

And the “solubility in acetone, DMSO and ethyl ether” value [2]?
The value was “very soluble”.

What about the “solubility in ethyl alcohol, glacial acetic acid and propylene glycol” value [2] of the same compound?
Its value is “soluble”.

And the “solubility in water, petroleum ether and benzene” value [2]?
Its value is “poorly soluble”.

What about the UV-Vis spectral stability [3] of the same compound?
Its UV-Vis spectral stability is “degrading free curcumin in 2h”.

And the solubility (solubility)?
The solubility was 20 µM (≈ 7.37 µg/mL).

And the “cytotoxicity on fibroblasts, DMCHSA compared with free DMC” value [4]?
Its value is “less cytotoxic”.
